# In US4080471A, “Use of substituted isopropylaminopropanols for inducing inotropic effects of the human heart” (priority 1976, dated 1978):
# Entries after “also recorded” stand apart in the source; their conditions may differ.
# Assays:
# [1] = molecular target: T1, beta-receptors of the blood vessels (Felis catus, UniProt Q9TST5); assay: Vasodilatating effect (hind limb perfusion pressure) on anesthetized cat pretreated with reserpine; assay type: in vivo; details: cat, iv, read-out: ED50 Vasodilation
# T1 construct: from tissue; host or cells: hind-limb vascular bed of the anaesthetized cat in vivo (constant-flow perfusion, reserpine-pretreated)
# T1 sequence (Q9TST5 whole entry, the tested form may be a part): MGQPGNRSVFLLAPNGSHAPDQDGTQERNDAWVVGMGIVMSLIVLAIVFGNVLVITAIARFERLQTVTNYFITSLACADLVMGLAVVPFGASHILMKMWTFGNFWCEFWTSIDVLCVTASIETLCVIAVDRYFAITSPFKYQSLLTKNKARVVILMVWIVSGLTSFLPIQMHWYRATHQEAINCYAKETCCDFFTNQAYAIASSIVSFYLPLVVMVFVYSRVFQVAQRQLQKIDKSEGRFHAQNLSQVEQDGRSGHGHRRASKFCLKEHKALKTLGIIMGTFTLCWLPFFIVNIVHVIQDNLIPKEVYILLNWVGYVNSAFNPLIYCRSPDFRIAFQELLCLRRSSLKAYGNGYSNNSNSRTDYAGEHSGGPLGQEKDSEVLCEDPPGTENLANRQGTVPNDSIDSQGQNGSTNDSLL
# Experimental: Chronotropic (heart frequency) and vasodilatating effects:
# (§1) When the cats had been anaesthetized with Mebumal® 30 mg/kg bodyweight i.p., an artificial air respiration was started. The two vagus nerves were cut and the blood passing through a femoral artery was fed via a catheter and a pump back to the distal part of the vessel. Parallelly, a pressure transducer was connected by which the perfusion pressure was registered. At a perfusion with a constant flow, the perfusion pressure is directly proportional to the peripheral resistance of the vascular bed of the hind limb. Blood circulation in the foot was interrupted with a ligature. Heart frequency was registered with a cardiotachometer triggered by the ECG. The substances were administered intravenously in increasing doses and the dose-response curves of the heart frequency and the vasodilatation were constructed.
# Further, the dose ratios (ED50 for vasodilatation/ED50 for heart frequency) are calculated. A dose ratio >1 indicates a heart selective effect.
# [2] = molecular target: T2, beta-receptors of the heart (Felis catus, UniProt Q9TST6); assay: Heart frequency increase before and after beta-blockade with Inderal; assay type: in vivo, cat; details: 0.01 mg/kg bodyweight i.v.
# T2 construct: Heart frequency was registered with a cardiotachometer triggered by the ECG; from tissue; host or cells: heart of the anaesthetized cat in vivo (reserpine-pretreated, vagotomized)
# T2 sequence (Q9TST6 whole entry): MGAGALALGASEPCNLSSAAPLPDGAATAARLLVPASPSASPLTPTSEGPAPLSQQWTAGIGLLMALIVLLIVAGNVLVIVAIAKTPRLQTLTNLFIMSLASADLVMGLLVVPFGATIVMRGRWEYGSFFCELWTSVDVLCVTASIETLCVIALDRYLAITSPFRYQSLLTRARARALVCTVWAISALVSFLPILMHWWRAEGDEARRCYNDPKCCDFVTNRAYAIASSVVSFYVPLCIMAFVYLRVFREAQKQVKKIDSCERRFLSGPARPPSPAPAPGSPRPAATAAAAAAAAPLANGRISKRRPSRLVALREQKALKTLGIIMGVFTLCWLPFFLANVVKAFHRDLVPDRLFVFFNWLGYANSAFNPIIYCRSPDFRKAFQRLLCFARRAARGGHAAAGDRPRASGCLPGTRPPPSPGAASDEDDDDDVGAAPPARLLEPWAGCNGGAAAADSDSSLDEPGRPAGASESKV
# Experimental: as §1
# cardiac beta-receptors = assay: Chronotropic (heart frequency) and inotropic (maximum dP/dt) effects in reserpinized, anesthetized, vagotomized cat; assay type: in vivo
# Experimental: Chronotropic (Heart Frequency) and Inotropic (Contractile Force) Effects
# The mean blood pressure was regulated with an adjustable clamp around the descending aorta. All registrations were than able to be done at a constant pressure in aorta (afterload). The compounds were administered by infusion intravenously in increasing doses. The dose-response curves as regards the heart frequency and maximum dP/dt were constructed, from which the ED50 -values were estimated.
# Maximum dP/dt is a measure of the contractile force of the heart, i.e. inotropy, but is influenced by changes in the heart frequency, filling pressure (preload) and aortic blood pressure (afterload). In this test, a comparison between inotropic and chronotropic effects can be done at the same heart frequency. Further, the aortic blood pressure is kept constant.
# heart [3] = assay: Effect on heart chronotropy and inotropy of a conscious dog
# Source text: During anesthesia a catheter was introduced in the aorta, an electromagnetic flow probe was placed around the ascending aorta, and induction coils were placed diametrically on the inside of the left ventricle. The experiments were started about 2 weeks after the incision, when the dog had recovered completely.
# When the dog was resting, the arterial blood pressure, the flow in the aorta, the maximum flow acceleration in the aorta (maximum dF/dt), heart frequency, the diameter of the left ventricle, and ECG were registered. The effects of compounds I and II were registered at 10, 20, and 30 minutes after administration. […] The compounds were given intravenously in the following doses. […] In order to eliminate vagal influence on the heart the dog was pretreated with methyl scopolamine 0.012 mg/kg bodyweight intramuscularily 20 minutes before the administration of the compounds. From the data giving the diameter of the left ventricle, the end diastolic volume was calculated according to E. W. Hawthorne. Mean ejection rate (ml/sec.) was calculated by dividing the stroke volume with the ejection time. […] The values given are the percentage changes after administration when the heart frequency has increased 10 beats per minute, values interpolated. […] In order to compare the inotropic effects of ouabain with those of the other compounds, the heart was stimulated in these experiments by electric pacing to a frequency which was 10 beats/minute above that registered before administration.
# In order to investigate the absorption and duration of the effect, compounds I and II were given orally in an amount of 100 μg/kg bodyweight.
# heart [4] = assay: Repetitive ventricular response (RVR) / spontaneous arrhythmia in the anesthetized dog; assay type: in vivo
# Source text: Effects of Compound I and Ouabain On the Heart Contractility and Rhythmicity of the Anesthetized Dog
# The object of the test was to compare compound I and oubain administered alone and in combination with each other to study the inotropic effect (maximum dP/dt in the left ventricle) and a possibly arrhythmic effect. The latter included an investigation of the ability of the compounds to cause repetitive ventricular response (RVR) when the heart was electrically stimulated via an electrode on the ventricle at the electrically vulnerable phase at the end of the T-wave. Klein et al. (M. Klein, N. S. Nejad, B. Lown, F. Hagemeijer and I. Blair, Circulation Research, 29, 635 (1971)) have shown that digitalis caused RVR at a dose which was about 70% of the dose giving spontaneous ventricular arrhythmias.
# The dog was anesthetized with Mebumal® 30 mg/kg bodyweight i.v. Artificial respiration was applied. The sinus-node was electrocoagulated and the heart frequency was kept constant at 180 beats/minute in each test by electrical pacing of the auricle. Mean arterial blood pressure was registered from the carotis artery. ECG was registered during the test. Further, the pressure in the left ventricle was registered via a catheter inserted through the apex and connected to a pressure transducer. The intraventricular pressure curve was derivated to obtain maximum dP/dt which is a measure of the contractile force of the heart.
# The test was started with a series of control registrations, whereupon the compounds were administered 3 times by infusion during five minutes and with an interval of 50 minutes between each infusion.
# In the experiment with compound I only, the compound was administered in two doses of 10 μg/kg bodyweight and then one dose of 20 μg/kg bodyweight. Ouabain was given in 3 consecutive doses of 20 μg/kg bodyweight. In the combination test ouabain was first given in a dose of 20 μg/kg bodyweight followed by two doses of compound I of 10 and 20 μg/kg bodyweight, respectively.
# [5] = change i.v. at heart frequency +10 beats/min, interpolated, ouabain 30 μg/kg i.v., paced
smiles,measurement,setting,value
"CC(C)NCC(O)COc1ccc(O)cc1 (stereo not drawn) [Compound I, 1-isopropylamino-3-(p-hydroxyphenoxy)-propanol-2]",ED50,[1],> 1 mg/kg
same,"increase of heart frequency, given after Inderal",[2]; after 0.2 mg/kg i.v. Inderal,10 beats/minute
same,"increase of heart frequency, given before Inderal","[2]; before Inderal, average",60 beats/minute
same,auricle pressure (filling pressure),"cardiac beta-receptors; cat, i.v. infusion",decreased
same,affinity to cardiac beta-receptors giving inotropic versus chronotropic effects (in words),cardiac beta-receptors; in vivo,"higher affinity to cardiac beta-receptors, which give inotropic effects, than to beta-receptors in the sinus-node region, which give chronotropic effects"
same,"time of maximum effect, oral",heart [3]; 100 μg/kg bodyweight orally,30 min
same,Enddiastolic volume,"heart [3]; change i.v. at heart frequency +10 beats/min, interpolated, calculated from left ventricle diameter, ouabain 30 μg/kg i.v., paced",-9%
same,Stroke volume,"heart [3]; change i.v. at heart frequency +10 beats/min, interpolated, methyl scopolamine pretreated, ouabain 30 μg/kg i.v., paced",5%
same,Mean arterial blood pressure,heart [3]; [5],0 mm Hg
same,Peak aortic flow,heart [3]; [5],22%
same,Mean ejection rate,"heart [3]; change i.v. at heart frequency +10 beats/min, interpolated, stroke volume / ejection time, ouabain 30 μg/kg i.v., paced",13%
same,side effects,"heart [3]; conscious dog, I and II 10 and 20 μg/kg, ouabain 30 μg/kg i.v.",No side effect was observed
same,contractility / inotropic effect in conscious dog (in words),heart [3]; i.v.,clear inotropic effect without any significant increase of the heart frequency; also recorded: increases the contractility of the left ventricle
same,Max. dF/dt,"heart [3]; maximum flow acceleration in aorta, change i.v. at heart frequency +10 beats/min, interpolated, ouabain 30 μg/kg i.v., paced",43%
same,oral effect (in words),"heart [3]; oral, 100 μg/kg bodyweight",good inotropic effect when administered perorally and an acceptable duration of action; also recorded: comparable with those obtained after intravenous administration of 20 μg/kg bodyweight
same,positive inotropic effect compared with ouabain (in words),heart [3]; versus relatively high dose of ouabain,quite comparable to the effect of a high dose of ouabain; also recorded: comparable to the effect of the relatively high dose of ouabain
same,RVR or spontaneous arrhythmia (in words),heart [4]; compound I 10 and 20 μg/kg bodyweight,did not in any case cause RVR or spontaneous arrhythmia
same,"arrhythmogenic effect in relation to inotropic effect, versus ouabain (in words)","heart [4]; dog, in vivo",evidently less arrhythmogenic effect than ouabain
